Results reported in paper PMC10179937, “Cytotoxic Activity, Topoisomerase I Inhibition and In Silico Studies of New Sesquiterpene-aryl Ester Derivatives of (-) Drimenol” (Molecules, 2023).
Read-outs that look alike come from different tables or passages of the source.

Assays:
[1] = system: MCF-7 (breast adenocarcinoma); experiment: Sulforhodamine B in vitro growth inhibition assay, MCF-7; assay type: cell-based, human; settings: for Selectivity Index (SI) MCF-10/MCF-7: IC50 in non-cancerogenic cell line / IC50 in cancer cell line
Method: (§1) For this purpose, a colorimetric sulforhodamine B assay was performed to quantify the cytotoxic effect through their respective IC50 values. Each compound’s serial dilutions (12.5, 25, 50, and 100 µM) were evaluated in triplicate. In our study, the human cancer cell lines used were MCF-7 (breast adenocarcinoma); HT-29 (colorectal adenocarcinoma); PC-3 (prostate adenocarcinoma); and MCF-10 control cells (normal breast epithelium). For comparative purposes, the literature IC50 values of daunorubicin and 5-fluorouracil (5-FU), measured in the same cell lines and under the same experimental conditions, were included. Similarly, drimenol (1) was included for comparative purposes.
(§2) The sulforhodamine B assay was used. Briefly, the cells were set up at 5 × 10^3 cells per well of a 96-well microplate for 18 h. Cells were incubated at 37 °C in a humidified 5% CO2/95% air mixture and treated with the compounds at different concentrations for 72 h. At the end of drug exposure, cells were fixed with 50% trichloroacetic acid at 4 °C. After washing with distilled water, cells were stained with 0.1% sulforhodamine B, dissolved in 1% acetic acid (50 μL/well) for 30 min, and, subsequently, washed with 1% acetic acid to remove the unbound stain. The protein-bound stain was solubilized with 100 μL of 10 mM unbuffered Tris base, and the cell density was determined using a […] (wavelength 540 nm). Results are expressed as IC50 values (μM) ± SD.

[2] = system: HT-29 (colorectal adenocarcinoma); experiment: Sulforhodamine B in vitro growth inhibition assay, HT-29; assay type: cell-based, human; settings: for Selectivity Index (SI) MCF-10/HT-29: IC50 in non-cancerogenic cell line / IC50 in cancer cell line
Method: as §1, §2

[3] = system: PC-3 (prostate adenocarcinoma); experiment: Sulforhodamine B in vitro growth inhibition assay, PC-3; assay type: cell-based, human; settings: for Selectivity Index (SI) MCF-10/PC-3: IC50 in non-cancerogenic cell line / IC50 in cancer cell line
Method: as §1, §2

[4] = biological target: T1, Human recombinant Topoisomerase I (Homo sapiens, UniProt P11387); experiment: Topoisomerase I activity, relaxation of supercoiled DNA (pEGFP-N1); assay type: biochemical; settings: 50 μM, agarose gel, result in words
T1 construct: purchased Sigma-Aldrich
T1 sequence (P11387 1-765): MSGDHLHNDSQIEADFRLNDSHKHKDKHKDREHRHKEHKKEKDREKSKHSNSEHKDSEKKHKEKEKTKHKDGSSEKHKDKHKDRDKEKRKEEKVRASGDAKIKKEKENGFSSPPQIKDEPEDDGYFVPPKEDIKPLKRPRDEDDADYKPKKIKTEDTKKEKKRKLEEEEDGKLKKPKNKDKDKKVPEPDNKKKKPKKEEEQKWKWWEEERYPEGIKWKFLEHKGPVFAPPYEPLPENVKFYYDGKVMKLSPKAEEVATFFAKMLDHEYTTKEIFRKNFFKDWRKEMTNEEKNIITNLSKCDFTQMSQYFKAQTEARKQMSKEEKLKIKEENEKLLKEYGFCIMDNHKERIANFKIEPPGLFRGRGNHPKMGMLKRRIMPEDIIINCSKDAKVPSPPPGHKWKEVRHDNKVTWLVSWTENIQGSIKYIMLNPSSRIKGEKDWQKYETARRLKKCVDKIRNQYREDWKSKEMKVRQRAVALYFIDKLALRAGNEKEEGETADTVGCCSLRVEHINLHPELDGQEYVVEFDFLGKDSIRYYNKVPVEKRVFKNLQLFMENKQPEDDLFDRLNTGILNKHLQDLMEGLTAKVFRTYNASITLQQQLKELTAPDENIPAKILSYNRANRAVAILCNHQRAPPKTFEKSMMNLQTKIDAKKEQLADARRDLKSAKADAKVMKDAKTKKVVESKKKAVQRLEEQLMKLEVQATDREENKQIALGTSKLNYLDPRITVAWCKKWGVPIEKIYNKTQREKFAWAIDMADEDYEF
Method: In this experiment, daunorubicin was used as control due to this compound being reported early as a TOPI inhibitor [31]. First, the optimal concentration of these compounds for the DNA relaxation assays was established.
Topoisomerase I activity was assayed by the relaxation of supercoiled DNA (pEGFP-N1) as the manufacturer’s instructions indicated. Human recombinant Topoisomerase I and buffer were from (Sigma-Aldrich). An amount of 2 μL of 10× topoisomerase I reaction buffer and 200 ng plasmid DNA and the indicated concentrations of compounds were incubated 30 min at 37 °C in Topo I buffer (500 mM Tris·HCl, pH 7.5, 1 M KCl, 10 mM dithiothreitol, 100 mM EDTA, 50 μg/mL acetylated bovine serum albumin (BSA)) in a total volume of 20 μL. The reaction was stopped by the addition of 5 μL of 5× loading dye (composition). Samples were electrophoresed on an 0.8% agarose gel without ethidium bromide for 2–3 h at 5 to 10 V/cm. The gel was stained with ethidium bromide and photographed with a UV transilluminator.

[5] = system: MCF-7 (breast adenocarcinoma); settings: literature value, same experimental conditions; cited from earlier work
[6] = system: HT-29 (colorectal adenocarcinoma); design: method as in PMID 25412045; settings: literature value, same experimental conditions; cited from earlier work
[7] = system: PC-3 (prostate adenocarcinoma); settings: literature value, same experimental conditions; cited from earlier work
[8] = system: MCF-10 control cells (normal breast epithelium); settings: literature value, same experimental conditions; cited from earlier work
[9] = Sulforhodamine B in vitro growth inhibition assay, MCF-7; assay type: cell-based, human; settings: human; ratio of selectivity versus 5-FU; read-out: more selective than 5-FU in MCF-7
Method: as §1, §2

[10] = Sulforhodamine B in vitro growth inhibition assay, PC-3; assay type: cell-based, human; settings: human; ratio of selectivity versus 5-FU; read-out: more selective than 5-FU in PC-3
Method: as §1, §2

[11] = system: MCF-10 control cells (normal breast epithelium); experiment: Sulforhodamine B in vitro growth inhibition assay, MCF-10 control cells; assay type: cell-based; settings: Homo sapiens, MCF10, 72 h of treatment, IC50 ± SD, non-tumoral cells
Method: as §1, §2

[12] = system: caspases 3 and 7 on MCF-7 cells; experiment: Caspase-Glo 3/7 assay; assay type: cell-based, human; settings: 50 μM, 24 h
Method: To determine the cell death type induced by the most promising aryl-drimane esters, we evaluated their capacity to induce apoptosis through the activation of caspases 3 and 7 on MCF-7 cells. For this purpose, 6a, 6e, 6f, 8c, 8f, and 8g were incubated for 24 h on MCF-7 cells at a concentration of 50 μM, close to the IC50 values for cytotoxicity in most compounds. […] In summary, these drimane derivatives induced apoptosis in the MCF-7 cell line, showing a potential antitumoral effect.
The activity of caspase 3/7 in treated MCF-7 cells was determined using a Caspase-Glo-3/7 Assay kit (Promega, UK—Cat. No G8090). The caspase-Glo 3/7 assay is a homogenous, luminescent assay that measures caspase-3 and -7 activities, both key-players in apoptosis. […] Luminescence was proportional to the amount of caspase present. MCF-7 cells (1 × 10^4 cells per well) were grown in a 96-well white plate and were allowed to adhere overnight. The cells were then treated for 24 h with the synthesized compounds (50 µM), with the inclusion of a blank as a control. After treatment, the Caspase-Glo® 3/7 was prepared according to the manufacturer’s guidelines. Briefly, 100 μL of Caspase-Glo 3/7 reagent was added to 100 μL of culture medium containing the cells previously treated in each well. The content was mixed gently by placing the plate on a shaker for 30 s, and the plate was incubated at room temperature in the dark for 1 h before luminescence was read on a luminometer (Berthold Sirius Single Tube Luminometer, Pforzheim, Germany). Fold change in caspase activity was obtained by first subtracting the luminescence value for the blank well from every other value, and then, expressing the average luminescence of each treatment as a fold change with respect to the average luminescence of the negative control.

| IC50 ([1]; Homo sapiens, MCF7, sulforhodamine B assay, 72 h of treatment, IC50 ± SD) [µM] | IC50 ([2]; Homo sapiens, HT-29, sulforhodamine B assay, 72 h of treatment, IC50 ± SD) [µM] | IC50 ([3]; Homo sapiens, sulforhodamine B assay, 72 h of treatment, IC50 ± SD) [µM] | SMILES | Selectivity Index (SI) MCF-10/MCF-7 [1] | Selectivity Index (SI) MCF-10/HT-29 [2] | Selectivity Index (SI) MCF-10/PC-3 [3] | inhibition of TOP1-induced DNA relaxation [4] | IC50 [5] [µM] | IC50 [6] [µM] | IC50 [7] [µM] | IC50 [8] [µM] | selectivity ratio at 72 h [9] | selectivity ratio at 72 h [10] | IC50 [11] [µM] | caspases-3/7 activity over the control [12] |
| --- | --- | --- | --- | --- | --- | --- | --- | --- | --- | --- | --- | --- | --- | --- | --- |
| – | – | – | COc1cccc2c1C(=O)c1c(O)c3c(c(O)c1C2=O)C[C@@](O)(C(C)=O)C[C@@H]3O[C@H]1C[C@H](N)[C@H](O)[C@H](C)O1 [Daunorubicin, reference compound] | 28 | 0.6 | 23 | modified the TOP1-induced DNA relaxation in a minor way than compounds 6a and 8c | 0.33 ± 0.02 | 15.1 ± 0.5 | 0.41 ± 0.04 | 9.32 ± 1.01 | – | – | – | – |
| 33.7 ± 1.3 | 56.9 ± 4 | 85.5 ± 7.1 | CC1=C(C(=O)Oc2cc(C)cc(O)c2)[C@@]2(C)CCCC(C)(C)C2CC1 (stereo partly drawn) [6a, 3-Hydroxy-5-methylphenyl-(8aS)-2,5,5,8a-tetramethyl-3,4,4a,5,6,7,8,8a-octahydronaphthalene-1-carboxylate] | 2.0 | 1.2 | 0.8 | more prominent | – | – | – | – | 100 | 20 | 67.2 ± 6.3 | two-fold |
